Publication PMC6503114, “Application of Antimicrobial Peptides of the Innate Immune System in Combination With Conventional Antibiotics—A Novel Way to Combat Antibiotic Resistance?” (Frontiers in Cellular and Infection Microbiology, 2019)
Where a SMILES comes first, the peptide text is derived from it. Bridges are numbered along the chain shown (N, C = ends).

Columns and labels:
[1] = test system: K562
Description: (§1) The human erythromyeloid leukemia cell line K562 was obtained from the collection of the Institute of Cytology RAS (Saint Petersburg, Russia) and cultured in RPMI-1640 medium containing gentamicin (100 μg/ml) and 10% of fetal bovine serum at 37°C, 5% CO2. […] Drug resistance was maintained by monthly selection with the antibiotic (2 μg/ml in the culturing medium). Doxorubicin was removed from the medium 3 days prior to beginning any experiments. Before the testing K562 cells were washed twice with PBS and resuspended in RPMI-1640 in the same way as the other cell types.
(§2) We calculated Fractional Effective Concentration Index (FECI), which could be seen as a particular case of the interaction index (I) proposed by Berenbaum ([1977]) or of the similar combination index (CI) proposed by Chou and Talalay ([1983]), according to the equation below: […]
(§3) Here, [MEC A] and [MEC B] are the minimum effective concentrations (MEC) of substances A and B, when they are used alone. […] [A] and [B] are respective concentrations of substances A and B in their combination, where the same statistically significant difference is detected. A non-parametric Mann-Whitney U-test (p < 0.05 or p < 0.01) was used for the mentioned statistical comparison.
(§4) We have chosen the same intervals as that of FICI to determine synergy, additivity, independent action, and antagonism based on the minimal FECI values. However, in case of cytotoxic or hemolytic effect we were interested mainly in testing the possibility of additive or synergistic interaction itself, and not in assessing the exact magnitude of such interaction. Thus, in contrast to the “checkerboard titration” method used for combined antimicrobial activity investigation, studying the combined cytotoxic effect, we considered only two combinations of concentrations for the substances A and B in the mixture: • (½ MEC A + ½ MEC B), which, if found effective, provides the FECI value of 1 (the threshold value for additivity); • (¼ MEC A + ¼ MEC B), which, if found effective, provides the FECI value of 0.5 (the threshold value for synergetic interaction).
(§5) When action on tumor cells was tested in combination with antitumor antibiotic the lower concentrations up to ( 1/16 MEC A + 1/16 MEC B) as in checkerboard titration were additionally examined to assess the magnitude of synergistic effect more precisely. The final conclusion was made based on the three independent experiments.
(§6) Standard MTT-test (Mosmann, [1983]) was used for the examination of the cytotoxic activity of antimicrobial compounds and their combinations toward varied eukaryotic cells. Briefly, cell suspensions in RPMI-1640 prepared as described in Eukaryotic Cells were dispensed into the 96-well microplates (2 × 10^5 cells/well). Then, serial dilutions of AMPs, or other antibiotic compounds, or their mixtures in RPMI-1640 were added. In positive controls (100% cell survival) the according volume of RPMI-1640 without test substances was added instead. The final volume in each well was 100 μl. Negative controls (0% cell survival) were made with 100 μl of the sterile RPMI-1640. The plates were incubated at 37°C under 5% CO2 for 24 h. Four hours before the end of incubation, 10 μl of metabolic marker MTT−3-(4,5-dimethylthiazol-2-yl)-2,5-diphenyltetrazolium bromide (5 mg/ml, diluted in PBS) was added to each well. Incubation was stopped by adding 90 μl of isopropanol containing 0.04 M HCl. Content of the wells was thoroughly mixed, so that the formazan crystals, formed in case of the reduction of MTT in presence of actively metabolizing cells, were fully dissolved.

[2] = test system: doxorubicin-resistant K562 tumor cells; details: for MEC: doxorubicin-resistant K562 cell line; for enhancement in MEC values comparing susceptible and resistant cell lines: doxorubicin-resistant vs susceptible K562
Description: as §1, §2, §3, §4, §5, §6

[3] = test system: E. coli ML-35p; assay: microbe, parasite or virus in culture; format: cell-based, Escherichia coli; details: median of 3–6 experiments, value in square brackets = twice the maximal tested concentration
Description: Prior to the “checkerboard” synergy test the minimal inhibitory concentrations (MIC) of individual substances were determined using broth microdilution assay. Testing was performed in 60-well polystyrene Terasaki microplates with V-shaped bottom generally according to the guidelines of the European Committee for Antimicrobial Susceptibility Testing with subtle modifications designed for AMP testing (Tossi et al., [1997]; Wiegand et al., [2008]). Cultivation of bacteria was carried out in 2.1% Müller-Hinton broth at 37°C with shaking. Two-fold serial dilutions of peptides, antibiotics and other antimicrobials were made with 10 mM sodium phosphate buffer, pH 7.4, containing 0.1% of BSA. The plates were preliminary incubated with 0.1% BSA for 1 h at 37°C to reduce a non-specific binding of peptides to the plates. After that BSA was removed, and serial dilutions were added into the plate wells in triplicates followed by the same volume of the suspension of bacterial cells in logarithmic phase of growth in concentration of 1 × 10^6 CFU/ml. After the 18 h overnight incubation at 37°C, the MIC value for each compound was determined as its lowest concentration completely inhibiting the visible growth of bacteria. The final results were calculated as median values based on 3–6 independent experiments.

[4] = test system: Murine peritoneal macrophages; assay: MTT-test
Description: (§7) Before the cells extraction, mice were sacrificed by cervical dislocation in accordance with the supplement to the Directive 86/609/EEC and its update Directive 2010/63/EU addressing the recommendations for euthanasia of experimental animals (Close et al., [1996]). To obtain peritoneal macrophages, healthy mice were used. The abdominal cavity of each animal was washed with 3 ml of sterile PBS using a Pasteur pipette. The culture of EAC cells was kindly provided by Dr. E.P. Kiseleva (Immunology Department of the Institute of Experimental Medicine, Saint Petersburg, Russia). On the tenth day after the intraperitoneal tumor inoculation, 0.5–1.5 ml of ascitic fluid containing EAC cells was obtained from the abdominal cavity of the animals. Murine cells (normal or tumor) were washed twice with 10 ml of sterile PBS and resuspended in RPMI-1640 medium as described above for human neutrophils and PBMC.
as §2, §3, §4, §5, §6

[5] = test system: Murine EAC; assay: MTT-test; format: cell-based, mice; details: Murine EAC tumor cells, 24 h
Description: as §7, §2, §3, §4, §5, §6

[6] = test system: Human PBMC; assay: MTT-test
Description: To obtain neutrophils and mononuclear cells, whole heparinized blood was diluted with sterile PBS in a 1:1 ratio and carefully inserted into the sterile polystyrene 50 ml tube upon the 5 ml of the sterile Ficoll-400 (Pharmacia, Sweden) with a density of 1.077. The tube was centrifuged at 600 g and 4°C for 40 min. After separation, the mononuclear “ring” located between the blood plasma and Ficoll was collected with a Pasteur pipette, transferred to another tube, and washed twice with 10 ml of sterile PBS by centrifugation for 10 min at 300 g and 4°C.
as §2, §3, §4, §5
as §6, with “dissolved. The optical density of the samples was evaluated at 540 nm, subtracting the background absorbance at 690 nm, by SpectraMax 250 Spectrophotometer (Molecular Devices, USA). The experiments were repeated at least three times. In each experiment test samples were made in triplicates and control samples were made in hexaplicates.” for “dissolved.”

[7] = test system: Human neutrophils
Description: The pellet formed under the Ficoll-400 layer after separation contained both neutrophils and erythrocytes. It was also transferred into a separate tube, where the red blood cells were lysed with 0.83% ammonium chloride solution, which was added in a ratio of 1:4. After the thorough mixing, the suspension was incubated for 10 min at room temperature, and then centrifuged for 10 min at 300 g and 4°C. The resulting precipitate containing neutrophils was washed twice with the sterile PBS.
as §2, §3, §4, §5
as §6, with “dissolved. The optical density of the samples was evaluated at 540 nm, subtracting the background absorbance at 690 nm, by SpectraMax 250 Spectrophotometer (Molecular Devices, USA). The experiments were repeated at least three times. In each experiment test samples were made in triplicates and control samples were made in hexaplicates.” for “dissolved.”

Row | Compound | MEC ([1]; susceptible K562 cell line) [µg/mL] | MEC [2] | enhancement in MEC values comparing susceptible and resistant cell lines [2] [times] | MIC [3] | MEC of cytotoxic action [4] [µM] | MEC of cytotoxic action [5] [µM] | minimal FECI (combined cytotoxic action) [1] | MEC of cytotoxic action ([1]; K562 tumor cells (doxorubicin-sensitive), MTT, 24 h) [µM] | minimal FECI (combined cytotoxic action) [2] | MEC of cytotoxic action [6] [µM] | MEC of cytotoxic action [7] [µM]
1 | COc1cccc2c1C(=O)c1c(O)c3c(c(O)c1C2=O)C[C@@](O)(C(=O)CO)C[C@@H]3O[C@H]1C[C@H](N)[C@H](O)[C@H](C)O1 [doxorubicin] | 1 | 100 µg/mL | 100 | – | – | – | – | – | – | – | –
2 | CC[C@H](C)[C@@H]1NC(=O)[C@H](CC(C)C)NC(=O)[C@@H]2CSSC[C@@H]3NC(=O)[C@H](CO)NC(=O)[C@@H](NC(=O)[C@@H](N)C(C)C)CSSC[C@@H](C(=O)N[C@H](C(=O)N[C@@H](CCCNC(=N)N)C(=O)N[C@H](C(=O)O)C(C)C)[C@@H](C)O)NC(=O)[C@H](CSSC[C@H](NC(=O)[C@H](Cc4ccccc4)NC(=O)[C@H](C(C)C)NC(=O)[C@H](CC(C)C)NC(=O)[C@H](CCCNC(=N)N)NC3=O)C(=O)N[C@@H](CCCNC(=N)N)C(=O)N[C@@H](CCCNC(=N)N)C(=O)N[C@@H]([C@@H](C)O)C(=O)N[C@@H](CCC(=O)O)C(=O)N[C@@H](CC(C)C)C(=O)N[C@@H](CCCNC(=N)N)C(=O)N[C@@H](C(C)C)C(=O)NCC(=O)N[C@@H](CC(N)=O)C(=O)N2)NC(=O)[C@H](Cc2ccc(O)cc2)NC(=O)[C@H]([C@@H](C)O)NC(=O)[C@H](Cc2ccccc2)NC(=O)[C@H](CO)NC(=O)[C@H](C(C)C)NC(=O)CNC(=O)CNC1=O [HNP-4] (H-VCSCRLVFCRRTELRVGNCLIGGVSFTYCCTRV-OH; disulfide 2-30, 4-19, 9-29 (inferred); N-terminus and C-terminus assumed) | – | – | – | >100 [200] μM | – | – | – | – | – | – | –
3 | CC(C)C[C@H](NC(=O)[C@H](CCCNC(=N)N)NC(=O)CNC(=O)CNC(=O)[C@@H](N)CCCNC(=N)N)C(=O)N[C@H]1CSSC[C@@H](C(=O)N[C@H](C(=O)NCC(=O)N[C@@H](CCCNC(=N)N)C(N)=O)C(C)C)NC(=O)[C@H](C(C)C)NC(=O)[C@@H]2CSSC[C@H](NC(=O)[C@H](Cc3ccc(O)cc3)NC1=O)C(=O)N[C@@H](CCCNC(=N)N)C(=O)N[C@@H](CCCNC(=N)N)C(=O)N[C@@H](CCCNC(=N)N)C(=O)N[C@@H](Cc1ccccc1)C(=O)N2 [PG-1, protegrin 1] | – | 5.0 µM | 4 | – | 2.5 | 1.25 | 0.25 | 1.25 | 0.38 | 5.0 | 2.5
